Data as given in patent publication US9259408B2, “Use of DHA, EPA or DHA-derived EPA for treating a pathology associated with cellular oxidative damage” (Brudy Technology S.L., priority 2005, dated 2016).

Legend:
[1] = system: Foreskin cells (undifferentiated epidermal fibroblasts, CRL-2076); test: ROS generation in Foreskin cells under xanthine/xanthine oxidase oxidative stress (CDCFDA); assay type: cell-based, human; details: 100 μM Vitamin E
Protocol: (§1) The cellular models used were Foreskin cells (undifferentiated epidermal fibroblasts, CRL-2076) and ARPE-19 cells (retina pigmentary epithelial cells, CRL-2302) obtained from the American Type Culture Collection. The cell cultures were kept in suitable growth conditions of temperature (37° C.), CO2 concentration (5%) and humidity (95%) in an incubator specially designed for this purpose. The ARPE-19 cells were maintained in growth up to confluence of 0.3×10^4 cells/cm^2 in culture flasks with DMEM-F12 medium (Biological Industries) supplemented with 10% bovine foetal serum, penicillin antibiotics (100 U/mL), streptomycin (100 μg/mL) and glutamine (Biological Industries). […]
(§2) The ROS level was measured in primary cultures of human skin CRL-2076 fibroblasts and in ARPE-19 retinal epithelial cells by employing the fluorimetric technique using dihydrorodamine 123 (DHR123, Molecular Probes) and 2,7-dichlorofluorescein diacetate (H2DCFDA, Molecular Probes) as fluorescent probes in a continuous system measuring every 30 min until 180 minutes. […] The fluorescence of the oxidised probes (2,7-dichlorofluorescein and rodamine 123) was measured in a Mithras fluorescence reader at an excitation wavelength of 488 nm and an emission wavelength of 525 nm in function of the time. […]

Foreskin cells [2] = test: Lipidic peroxides (TBARS/MDA) in Foreskin cells; assay type: cell-based, human; details: 40 mM AAPH; 50 μM DHA-TG
Protocol: The measurement of malonildialdehyde (MDA) on cell lysates was used as a marker of lipidic peroxidation by UV-Vis spectrophotometry. The MDA and the 4-hydroxyalkenals (HAE) are products derived from the peroxidation of polyunsaturated fatty acids and related esters. Direct measurements of these aldehydes constitutes a convenient index of lipidic peroxidation. A chromogenic reagent (N-methyl-2-phenyl-indole in acetonitrile) which reacts with the MDA at 45° C. was employed, using the commercial lipidic peroxidation kit from Calbiochem (No. 437634). The condensation of one molecule of MDA with two molecules of the chromogenic reagent gives a stable chromophore with maximum absorbance at 586 nm, with the detection limit being 0.1 μM. The induction was carried out for 6 h with 40 mM AAPH and 24 hours of latency. The cells (10^7 cells/mL) were lysed by means of cycles of freezing and thawing in liquid N2. The samples were fractionated in order to measure MDA and protein. The results were expressed in μM of MDA/mg of protein.

Foreskin cells [3] = test: Superoxide anion generation (luminol chemiluminescence) in Foreskin cells; assay type: cell-based, human; details: 40 mM AAPH, with or without DHA; 10 mM Tyron or 0.1875 UA/μl exogenous SOD
Protocol: Direct measurement of the superoxide anion was carried out by means of the chemiluminescence technique on microplate measured by luminol (Calbiochem, No. 574590). Chemiluminescence for detecting the superoxide anion is a technique used due to its potential for gaining access to all the intracellular sites of superoxide generation, due to the high specificity of the reaction with luminol, the minimal intracellular toxicity and the increased sensitivity in relation to other chemical techniques. It is based on the superoxide anion oxidising luminol in a reaction that produces photons of light which are quickly measured on a standard illuminometer. In our tests we used a chemiluminescence reader on microplate from ELISA, MITHRAS and furthermore, given the short half-life of the radical, an enhancer was used to increase the sensitivity of the test and amplify the response. […] The chemiluminescence measurement in the cells submitted to the AAPH oxidative stress inducing treatment was analysed every […] for a total time of 4100 seconds, at a frequency of 120 sec/cycle. […]

[4] = system: ARPE-19 cells (retina pigmentary epithelial cells, CRL-2302); test: ROS generation in ARPE-19 cells under AAPH oxidative stress (DHR123/H2DCFDA); assay type: cell-based
Protocol: as §1, §2

Molecule: vitamin E [reference compound]
- inhibition of cellular oxidation [1]: 30%

Molecule: CC/C=C\C/C=C\C/C=C\C/C=C\C/C=C\C/C=C\CCC(=O)O [DHA, docosahexaenoic acid]
- protection against lipidic peroxides (TBARS) (Foreskin cells [2]): 48%

Molecule: O=S(=O)(O)c1cc(O)c(O)c(S(=O)(=O)O)c1 [Tyron, 4,5-dihydroxy-1,3-benzene disulphonic acid, reference compound]
- production of superoxide anion in cells stressed with AAPH (Foreskin cells [3]): totally inhibited

Molecule: CCCCS(=N)(=O)CCC(N)C(=O)O (stereo not shown) [BSO, Buthionine sulfoximine, reference compound]
- effect of addition of BSO on the protective effect of DHA [4]: eliminates the protective effect of DHA
